Among the data in PMC4126177, “Molecular docking simulation studies on potent butyrylcholinesterase inhibitors obtained from microbial transformation of dihydrotestosterone” (Chemistry Central Journal, 2013) are IC50 values, retold here.

Molecules are shown by their SMILES. Read-outs that look alike come from different tables or passages of the source.

The target of this assay is T1, Equine serum BChE (butyrylcholinesterase) (Equus caballus, UniProt P81908).
T1 construct: commercial native enzyme from horse serum (Sigma); docking used human BChE 1P0P, not the assayed protein
Nature of the assay: DTNB (Ellman-type) spectrophotometric assay, […] nm. Type of assay: biochemical. In general terms: DTNB colorimetry detects thiols as they appear.

T1 sequence (P81908 whole entry): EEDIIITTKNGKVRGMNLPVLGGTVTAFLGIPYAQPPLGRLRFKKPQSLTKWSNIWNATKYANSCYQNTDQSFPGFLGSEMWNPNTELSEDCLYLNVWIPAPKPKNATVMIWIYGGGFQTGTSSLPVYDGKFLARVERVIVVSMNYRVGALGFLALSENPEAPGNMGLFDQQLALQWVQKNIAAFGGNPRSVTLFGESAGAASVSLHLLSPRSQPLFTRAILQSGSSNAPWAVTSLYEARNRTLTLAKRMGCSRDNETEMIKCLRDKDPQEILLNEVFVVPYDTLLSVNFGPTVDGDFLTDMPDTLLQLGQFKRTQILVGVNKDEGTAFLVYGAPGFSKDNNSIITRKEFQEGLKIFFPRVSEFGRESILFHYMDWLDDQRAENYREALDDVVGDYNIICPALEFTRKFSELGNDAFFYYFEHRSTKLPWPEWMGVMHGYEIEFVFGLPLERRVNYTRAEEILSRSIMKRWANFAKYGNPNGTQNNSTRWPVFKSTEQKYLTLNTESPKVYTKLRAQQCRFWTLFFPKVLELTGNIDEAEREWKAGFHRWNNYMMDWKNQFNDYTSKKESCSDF

On to `C[C@]12CCC(=O)C=C1CC[C@@H]1[C@@H]2[C@H](O)C[C@]2(C)C(=O)CC[C@@H]12` [compound 6, 11α-Hydroxyandrost-4-en-3,17-dione], for which the IC50 (read-out: Mean ± SEM^ a [ μ M]) is 20.5 ± 0.2 µM.
Regarding `C[C@]12C=CC(=O)C=C1CC[C@@H]1[C@@H]2CC[C@]2(C)C(=O)CC[C@@H]12` [compound 5, Androst-1,4-dien-3,17-dione], the IC50 was 11.8 ± 0.5 µM.
